Experimental data from publication PMC9674596, “Origin of acetylcholine antagonism in ELIC, a bacterial pentameric ligand-gated ion channel” (Communications Biology, 2022).
Entries after “also recorded” stand apart in the source; their conditions may differ.

Key:
Format in all cases: cell-based, Erwinia chrysanthemi
ELIC Y38W [1] = target: ELIC Y38W (Dickeya chrysanthemi, UniProt P0C7B7, Y38W); assay: Two-electrode voltage clamp, Y38W mutant ELIC expressed in Xenopus laevis oocytes; details: Y38W
Description: (§1) Stage V-VI Xenopus laevis oocytes were isolated[72] and deflocculated enzymatically in ND96 buffer without Ca^2+ (96 mM NaCl, 2 mM KCl, 1 mM MgCl2, 2 mM pyruvate, 5 mM HEPES, pH 7.4), but supplemented with 1 mg/mL collagenase B and 1 mg/mL trypsin inhibitor, for 2 h at room temperature under constant stirring. The deflocculation buffer was then gradually removed by washing the oocytes in ND96 buffer (96 mM NaCl, 2 mM KCl, 1 mM MgCl2, 1 mM CaCl2, 2 mM pyruvate, 5 mM HEPES, pH 7.4) for several iterations. The oocytes were then allowed to stir for an additional hour at room temperature under constant stirring with the buffer being periodically replaced until clear. To obtain optimal receptor expression, individually selected and healthy oocytes were injected with 0.2 ng cRNA for wild-type ELIC and 5 ng cRNA for mutants. Subsequently, oocytes were incubated for one day at 16 °C in ND96^+ buffer (96 mM NaCl, 2 mM KCl, 1 mM MgCl2, 1 mM CaCl2, 2 mM pyruvate, and 5 mM HEPES at pH 7.6). After expression, injected oocytes were placed in a RC-1Z oocyte chamber (Harvard Apparatus; Hamden, CT) containing buffer (pH 7.4) composed of 150 mM NaCl, 0.5 mM BaCl2, 10 mM HEPES, and 1 mM dithiothreitol or 1 µM atropine if cysteamine, or ACh, was used in the experiment, respectively. The presence of the reducing agent, dithiothreitol, ensures that the sulfhydryl group of cysteamine remains reduced.
(§2) Once in the oocyte chamber, whole-cell currents were recorded using a two-electrode voltage-clamp apparatus (OC-725C oocyte clamp; Harvard Apparatus), with a buffer flow rate of 5–10 mL min^−1. Currents in response to various additions of cysteamine and/or ACh, were measured with the transmembrane voltage clamped at −60 mV. Dose response curves for each wild-type and mutant ELIC were acquired from at least five oocytes in two different batches.
(§3) For identifying the half maximal effective concentration (EC50) and apparent Hill coefficient (nH) of cysteamine, dose response curves were created by taking the magnitude of each cysteamine-activated peak current (I) and normalizing this value to the maximal peak current in the presence of excess agonist (Imax). The log (base 10) cysteamine concentration in molar was then plotted on the x-axis against the fractional response (I/Imax) on the y-axis. The data was fitted using nonlinear regression with a variable slope sigmoidal dose response (Eq. 1, below) in GraphPad Prism (v.8.0.0).1 y=1/1+10^nH^LogEC50−X
(§4) Individual EC50 and Hill coefficients were averaged for each oocyte to derive a mean ± standard deviation. For identifying a half maximal inhibitory concentration (IC50) and Hill coefficient of ACh, a concentration of cysteamine corresponding to its EC50 was used in the presence of increasing concentrations of ACh. Peak currents elicited from cysteamine with ACh (I) were normalized to the initial cysteamine peak current in the absence of ACh (Io). The log (base 10) ACh concentration was then plotted on the x-axis against the fractional response (I/Io) on the y-axis. Subsequent steps were the same as above for deriving a cysteamine EC50 and Hill coefficient. The individual IC50 and Hill coefficients were averaged for each oocyte to derive a mean ± one standard deviation. Lastly, to identify four normalized response values, cysteamine at the 10% maximal effective concentration (EC10), 20% maximal effective concentration (EC20), EC50 and 90% maximal effective concentration (EC90), was applied in the presence and absence of 25 mM ACh. The cysteamine-activated peak current with 25 mM ACh, was normalized to the cysteamine-activated peak current without ACh.

ELIC Y38W [2] = assay: as above; details: Y38W
Description: as §1, §2, §3, §4

ELIC A75D = target: T1, ELIC A75D (Dickeya chrysanthemi, UniProt P0C7B7, A75D/INS163G); assay: Two-electrode voltage clamp, A75D mutant ELIC expressed in Xenopus laevis oocytes; details: A75D
T1 construct: expressed in transfected cells; host or cells: Xenopus laevis oocytes injected with cRNA from ELIC-pTLN

ELIC I79Y = target: T2, ELIC I79Y (Dickeya chrysanthemi, UniProt P0C7B7, I79Y/INS163G); assay: Two-electrode voltage clamp, I79Y mutant ELIC expressed in Xenopus laevis oocytes
T2 construct: expressed in transfected cells; host or cells: Xenopus laevis oocytes injected with cRNA from ELIC-pTLN
Description: as §1, §2, §3
as §4, with “The cysteamine-activated peak current with 25 mM ACh, was normalized to the cysteamine-activated peak current without ACh.” left out

ELIC F133W = ELIC F133W (Dickeya chrysanthemi, UniProt P0C7B7, F133W); assay: cell-based; details: F133W
Description: as §1, §2, §3, §4

ELIC A75D/F133W = target: T3, ELIC A75D/F133W (Dickeya chrysanthemi, UniProt P0C7B7, A75D/F133W/INS163G); assay: Two-electrode voltage clamp, A75D/F133W double mutant ELIC expressed in Xenopus laevis oocytes
T3 construct: expressed in transfected cells; host or cells: Xenopus laevis oocytes injected with cRNA; DNA construct synthesised by Twist Bioscience
Description: as §1, §2, §3, §4

[3] = target: T4, ELIC L240A (L9′A) + A75D/F133W (Dickeya chrysanthemi, UniProt P0C7B7, A75D/F133W/L239A); assay: Two-electrode voltage clamp, L9′A + A75D/F133W triple mutant ELIC expressed in Xenopus laevis oocytes
T4 construct: expressed in transfected cells; host or cells: Xenopus laevis oocytes injected with cRNA
Description: as §1, §2, §3
Individual EC50 and Hill coefficients were averaged for each oocyte to derive a mean ± standard deviation. For identifying a half maximal inhibitory concentration (IC50) and Hill coefficient of ACh, a concentration of cysteamine corresponding to its EC50 was used in the presence of increasing concentrations of ACh. […]

[4] = cysteamine as agonist, read-out: Activation EC50
[5] = ACh 0.5 mM to 50 mM, followed by 5 mM cysteamine
[6] = read-out: Cysteamine concentration corresponding to EC90

NCCS [cysteamine]
Cysteamine concentration corresponding to EC10 (ELIC Y38W [1]): 0.1 mM
Cysteamine concentration corresponding to EC20 (ELIC Y38W [1]): 0.2 mM
Activation Hill coefficient (ELIC Y38W [1]; cysteamine as agonist): 1.4 ± 0.2
EC50 (ELIC Y38W [1]; [4]): 0.5 ± 0.1 mM
Peak current on application of ligand alone (ELIC Y38W [1]; [5]): robust peak current
EC90 (ELIC Y38W [1]; [6]): 2.6 mM
Change in EC50 for cysteamine compared to wild-type (ELIC Y38W [2]): unchanged
Cysteamine concentration corresponding to EC10 (ELIC A75D): 0.6 mM
Cysteamine concentration corresponding to EC20 (ELIC A75D): 0.9 mM
Increase in EC50 for cysteamine relative to wild-type (ELIC A75D): 3 fold
Activation Hill coefficient (ELIC A75D; cysteamine as agonist): 2.3 ± 0.5
EC50 (ELIC A75D; [4]): 1.6 ± 0.4 mM
Peak current on application of ligand alone (ELIC A75D; [5]): robust peak current
EC90 (ELIC A75D; [6]): 4.2 mM
Increase in EC50 for cysteamine relative to wild-type (ELIC I79Y): 24 fold
Peak current on application of ligand alone (ELIC I79Y; [5]): robust peak current
Activation Hill coefficient (ELIC I79Y; estimate, cysteamine application for 30 s, 1.5 mM to 100 mM): 2.2 ± 0.3
EC50 (ELIC I79Y; estimate, cysteamine application for 30 s, 1.5 mM to 100 mM, read-out: Activation EC50): 14 ± 1 mM
Cysteamine concentration corresponding to EC10 (ELIC F133W): 1.6 mM
Cysteamine concentration corresponding to EC20 (ELIC F133W): 2.3 mM
Increase in EC50 for cysteamine relative to wild-type (ELIC F133W): 7 fold
Activation Hill coefficient (ELIC F133W; cysteamine as agonist): 2.3 ± 0.3
EC50 (ELIC F133W; [4]): 4.3 ± 0.6 mM
Peak current on application of ligand alone (ELIC F133W; [5]): robust peak current
EC90 (ELIC F133W; [6]): 11.3 mM
Cysteamine concentration corresponding to EC10 (ELIC A75D/F133W): 3.9 mM
Cysteamine concentration corresponding to EC20 (ELIC A75D/F133W): 4.8 mM
Activation by amine (whole-cell response) (ELIC A75D/F133W; 25 mM amine, cysteamine at its EC50): still activated
Activation Hill coefficient (ELIC A75D/F133W; cysteamine as agonist): 3.8 ± 0.3
EC50 (ELIC A75D/F133W; [4]): 6.9 ± 0.7 mM
EC90 (ELIC A75D/F133W; [6]): 12.3 mM
Current on application of ligand alone ([3]; L9′A + A75D/F133W, 30 s applications of ACh 0.5 to 50 mM, then 5 mM cysteamine): robust peak current; also recorded: robust activation
Activation Hill coefficient ([3]; L240A (L9′A) + A75D/F133W, cysteamine as agonist): 3.7 ± 0.3
EC50 ([3]; L240A (L9′A) + A75D/F133W, cysteamine as agonist, read-out: Activation EC50): 4.3 ± 0.6 mM
